Read-outs that look alike come from different tables or passages of the source.
Experiments:
[1] = tested on: Mycobacterium smegmetis wild type; format: cell-based
Nal^R mutants of E. coli = format: cell-based, Escherichia coli; conditions: 5 μg/ml
E. coli CA 8000 (WT) = format: cell-based, Escherichia coli
[2] = tested on: lomefloxacin resistant cells of E. coli; format: cell-based, Escherichia coli; conditions: 1.5 μg/ml
[3] = tested on: Lom^R mutants of Mycobacterium smegmatis; format: cell-based; conditions: Lom^R mutants isolated in medium with 20 μg/ml lomefloxacin

SMILES: CC[n+]1c(-c2ccccc2)c2cc(N)ccc2c2ccc(N)cc21 [ethidium bromide]
- concentration at which the strain is killed [1]: 3 µg/mL

SMILES: CCn1cc(C(=O)O)c(=O)c2cc(F)c(N3CCNC(C)C3)c(F)c21 (stereo not shown) [Lomefloxacin, lomefloxacin]
- Growth in poison agar medium (Nal^R mutants of E. coli; CAN 101): −
- Growth in poison agar medium (Nal^R mutants of E. coli; CAN 102): −
- Growth in poison agar medium (Nal^R mutants of E. coli; CAN 103): −
- Growth in poison agar medium (Nal^R mutants of E. coli; CAN 104): −
- Growth in poison agar medium (Nal^R mutants of E. coli; CAN 105): −
- Growth in poison agar medium (Nal^R mutants of E. coli; CAN 106): −
- Growth in poison agar medium (Nal^R mutants of E. coli; CAN 107): −
- Growth in poison agar medium (Nal^R mutants of E. coli; CAN 108): −
- Growth in poison agar medium (Nal^R mutants of E. coli; CAN 109): −
- Growth in poison agar medium (Nal^R mutants of E. coli; CAN 110): −
- Growth in poison agar medium (Nal^R mutants of E. coli; CAN 111): −
- Growth in poison agar medium (Nal^R mutants of E. coli; CAN 112): −
- Growth in poison agar medium (Nal^R mutants of E. coli; CAN 113): −
- Growth in poison agar medium (Nal^R mutants of E. coli; CAN 114): −
- Growth in poison agar medium (Nal^R mutants of E. coli; CAN 115): −
- Growth in poison agar medium (Nal^R mutants of E. coli; CAN 116): −
- Growth in poison agar medium (Nal^R mutants of E. coli; CAN 117): −
- Growth in poison agar medium (Nal^R mutants of E. coli; CAN 118): −
- Growth in poison agar medium (Nal^R mutants of E. coli; CAN 119): −
- Growth in poison agar medium (Nal^R mutants of E. coli; CAN 120): −
- Growth in poison agar medium (Nal^R mutants of E. coli; CAN 121): −
- Growth in poison agar medium (Nal^R mutants of E. coli; CAN 122): −
- Growth in poison agar medium (Nal^R mutants of E. coli; CAN 123): −
- Growth in poison agar medium (Nal^R mutants of E. coli; CAN 124): −
- Growth in poison agar medium (Nal^R mutants of E. coli; CAN 125): −
- Growth in poison agar medium (Nal^R mutants of E. coli; CAN 126): −
- Growth in poison agar medium (E. coli CA 8000 (WT)): −
- Growth in poison agar medium ([2]; CAL 101): +
- Growth in poison agar medium ([2]; CAL 102): +
- Growth in poison agar medium ([2]; CAL 103): +
- Growth in poison agar medium ([2]; CAL 104): +
- Growth in poison agar medium ([2]; CAL 105): +
- Growth in poison agar medium ([2]; CAL 106): +
- Growth in poison agar medium ([2]; CAL 107): +
- Growth in poison agar medium ([2]; CAL 108): +
- concentration upto which the mutants were resistant [3]: ≤ 60 µg/mL
